Assay results published in patent US12116635B2, “Methods for detecting and treating cancers having adenosine pathway activation” (Corvus Pharmaceuticals, Inc., priority 2018, dated 2024).
Entries after “also recorded” stand apart in the source; their conditions may differ.

Columns and labels:
PBMCs = experiment: CXCL5 protein ELISA in culture supernatants of PBMCs treated with NECA +/- CPI-444; type: cell-based, human
Experimental: Expression of CXCL5 was determined by ELISA 2 days after activation.
FIGS. 2B and 2C show the response of PBMCs from two different donors to NECA+/−CPI-444 treatment. DMSO was used as vehicle control. […] This control helps establish that the induction of CXCL5 is specific to signaling through adenosine receptors.
NECA activation of CXCL5 protein expression was evaluated. PBMCs were harvested from two different human donors. […] CPI-444 (Corvus Pharmaceuticals) is an antagonist of the adenosine A2A receptor. CXCL5 protein in the culture supernatants was evaluated by ELISA two days after activation. CXCL5 expression is activated by NECA. […] This establishes that the induction of CXCL5 is specific to signaling through adenosine receptors.

A2AR = experiment: In vitro A2AR stimulation gene signature +/- CPI-444 (transcript and protein); type: cell-based, human; details: at the transcript and protein level
Experimental: RNA purified from normal, healthy human peripheral blood mononuclear cells (PBMCs) treated with 5′-N-ethylcarboxamidoadenosine (NECA) and activated with anti-CD3/CD28 antibody were analyzed by NanoString hybridization-based quantification (NanoString Technologies, Inc.). […] Each dot represents the expression level of a specific gene. Dot shade represents the concentration of NECA used and/or different PBMC donors. […] Increases in monocyte/macrophage inflammatory mediators such as IL-1b and CCL2, 3, 7, 8, 20 were also observed, as were increases in SERPINB2, S100A8, PTGS2, THBS1. Expression of CXCL10 and GZMB were decreased, consistent with a suppressed IFNg response. […] A2AR agonists induce a specific gene signature (increase in a certain subset of genes and/or decrease in a second subset of genes) dominated by immunosuppressive mediators of MDSC and monocyte/macrophage biology. Inhibition of these genes by CPI-444 are observed. These gene signatures may be used as biomarkers for patient selection.

advanced cancers = experiment: Ongoing phase 1/1b trial in patients with advanced cancers; type: in vivo, human; details: as a monotherapy and in combination with atezolizumab
Excerpt: “Adenosine receptor antagonist” refers to a molecule that inhibits activity of adenosine receptors (e.g. A2A or A2B receptors), typically through direct action. Adenosine receptors antagonists can be small or large molecule antagonists. In embodiments, CPI-444 is an example A2A receptor antagonist. […] CPI-444 is described, for example, in PCT Patent Publication No. WO 2017/112917; each of which is incorporated herein by reference in its entirety.

[1] = test system: human peripheral blood mononuclear cells (PBMCs); experiment: NanoString quantification of mRNA in NECA-treated, anti-CD3/CD28-activated PBMCs; type: cell-based; details: 0.1 μM, 1 μM, and/or 10 μM NECA vs vehicle-treated control
Experimental: RNA purified from normal, healthy human peripheral blood mononuclear cells (PBMCs) treated with 5′-N-ethylcarboxamidoadenosine (NECA) and activated with anti-CD3/CD28 antibody were analyzed by NanoString hybridization-based quantification (NanoString Technologies, Inc.). […] Each dot represents the expression level of a specific gene. Dot shade represents the concentration of NECA used and/or different PBMC donors.

[2] = test system: human peripheral blood mononuclear cells (PBMCs); experiment: RNA sequencing (RNA-Seq) of NECA-treated PBMCs; type: cell-based
Experimental: RNA purified from normal, healthy human peripheral blood mononuclear cells (PBMCs) treated with 5′-N-ethylcarboxamidoadenosine (NECA) and activated with anti-CD3/CD28 antibody were analyzed by NanoString hybridization-based quantification (NanoString Technologies, Inc.). […] Each dot represents the expression level of a specific gene. Dot shade represents the concentration of NECA used and/or different PBMC donors. […] Data were confirmed by RNA sequencing (RNA-Seq).

Cc1ccc(-c2nc(N)nc3c2nnn3Cc2cccc(CO[C@H]3CCOC3)n2)o1 [CPI-444, (S)-7-(5-methylfuran-2-yl)-3-((6-(((tetrahydrofuran-3-yl)oxy)methyl)pyridin-2-yl)methyl)-3H-[1,2,3]triazolo[4,5-d]pyrimidin-5-amine]
Blocking of NECA-induced CXCL5 protein expression (PBMCs; PBMCs treated with NECA, followed by CPI-444, then anti-CD3/CD28, ELISA two days after activation): can be blocked
Inhibition of A2AR-stimulation-induced gene expression changes (A2AR): inhibited these changes
anti-tumor activity (advanced cancers): demonstrated anti-tumor activity

CCNC(=O)[C@H]1O[C@@H](n2cnc3c(N)ncnc32)[C@H](O)[C@@H]1O [NECA, 5′-N-ethylcarboxamidoadenosine]
logFC CD14 [1]: 0.4485
logFC CD86 [1]: 0.3148
logFC CLEC5A [1]: 0.3833
logFC CXCL1 [1]: 0.6909
logFC CXCL2 [1]: 1.093
logFC CXCL3 [1]: 1.101
logFC CXCL5 [1]: 1.338
logFC CXCL6 [1]: 0.6535
logFC IL1A [1]: 0.6367
logFC IL1B [1]: 0.6345
logFC IL6 [1]: 0.7014
logFC IL8 [1]: 0.6411
logFC IL23A [1]: 0.4628
logFC IL24 [1]: 0.5768
logFC PLAUR [1]: 0.5031
logFC PPBP [1]: 0.683
logFC PTGS2 [1]: 0.6892
logFC SLC11A1 [1]: 0.7022
logFC TBX21 [1]: −0.1238
logFC THBS1 [1]: 0.8703
logFC CCL24 ([2]; Control (DMSO) vs 0.1 μm NECA): −1.068
logFC CD93 ([2]; Control (DMSO) vs 0.1 μm NECA): 0.9975
logFC CSF3 ([2]; Control (DMSO) vs 0.1 μm NECA): 1.603
logFC CXCL2 ([2]; Control (DMSO) vs 0.1 μm NECA): 1.452
logFC CXCL3 ([2]; Control (DMSO) vs 0.1 μm NECA): 1.694
logFC CXCL5 ([2]; Control (DMSO) vs 0.1 μm NECA): 2.388
logFC EHF ([2]; Control (DMSO) vs 0.1 μm NECA): −0.2753
logFC EML6 ([2]; Control (DMSO) vs 0.1 μm NECA): 0.2117
logFC EPB41L3 ([2]; Control (DMSO) vs 0.1 μm NECA): 1.183
logFC FUT7 ([2]; Control (DMSO) vs 0.1 μm NECA): −0.2135
logFC HAS1 ([2]; Control (DMSO) vs 0.1 μm NECA): 2.059
logFC IL23A ([2]; Control (DMSO) vs 0.1 μm NECA): 0.7971
logFC INHBA ([2]; Control (DMSO) vs 0.1 μm NECA): 0.5196
logFC KLC4 ([2]; Control (DMSO) vs 0.1 μm NECA): 0.216
logFC LAYN ([2]; Control (DMSO) vs 0.1 μm NECA): 0.4228
logFC MRPL11 ([2]; Control (DMSO) vs 0.1 μm NECA): −0.19
logFC MS4A7 ([2]; Control (DMSO) vs 0.1 μm NECA): 0.9319
logFC NPR1 ([2]; Control (DMSO) vs 0.1 μm NECA): 0.7892
logFC OST4 ([2]; Control (DMSO) vs 0.1 μm NECA): 0.2352
logFC PADI2 ([2]; Control (DMSO) vs 0.1 μm NECA): 0.4802
logFC PTGS2 ([2]; Control (DMSO) vs 0.1 μm NECA): 1.184
logFC SLC7A7 ([2]; Control (DMSO) vs 0.1 μm NECA): 0.5935
logFC SPON1 ([2]; Control (DMSO) vs 0.1 μm NECA): 0.3611
logFC ST6GALNAC2 ([2]; Control (DMSO) vs 0.1 μm NECA): 0.5342
logFC SYTL3 ([2]; Control (DMSO) vs 0.1 μm NECA): 0.2894
logFC WDR83OS ([2]; Control (DMSO) vs 0.1 μm NECA): −0.2872
logFC ZBTB18 ([2]; Control (DMSO) vs 0.1 μm NECA): 0.2431
logFC CCDC60 ([2]; Control (DMSO) vs 1 μm NECA): 0.07658
logFC CD93 ([2]; Control (DMSO) vs 1 μm NECA): 1.454
logFC CSF3 ([2]; Control (DMSO) vs 1 μm NECA): 2.802
logFC CXCL2 ([2]; Control (DMSO) vs 1 μm NECA): 2.361
logFC CXCL3 ([2]; Control (DMSO) vs 1 μm NECA): 2.573
logFC CXCL5 ([2]; Control (DMSO) vs 1 μm NECA): 3.451
logFC EHF ([2]; Control (DMSO) vs 1 μm NECA): −0.2522
logFC EMR3 ([2]; Control (DMSO) vs 1 μm NECA): 1.364
logFC EPB41L3 ([2]; Control (DMSO) vs 1 μm NECA): 1.854
logFC EREG ([2]; Control (DMSO) vs 1 μm NECA): 1.89
logFC FUT7 ([2]; Control (DMSO) vs 1 μm NECA): −0.4158
logFC GPR157 ([2]; Control (DMSO) vs 1 μm NECA): 0.9283
logFC HAS1 ([2]; Control (DMSO) vs 1 μm NECA): 3.238
logFC IL23A ([2]; Control (DMSO) vs 1 μm NECA): 1.363
logFC IL24 ([2]; Control (DMSO) vs 1 μm NECA): 2.876
logFC INHBA ([2]; Control (DMSO) vs 1 μm NECA): 0.9638
logFC LAYN ([2]; Control (DMSO) vs 1 μm NECA): 0.5277
logFC MS4A7 ([2]; Control (DMSO) vs 1 μm NECA): 1.535
logFC OST4 ([2]; Control (DMSO) vs 1 μm NECA): −0.1747
logFC PADI2 ([2]; Control (DMSO) vs 1 μm NECA): 0.7173
logFC PID1 ([2]; Control (DMSO) vs 1 μm NECA): 1.729
logFC PTGS2 ([2]; Control (DMSO) vs 1 μm NECA): 2.23
logFC SLC7A7 ([2]; Control (DMSO) vs 1 μm NECA): 0.9514
logFC SPON1 ([2]; Control (DMSO) vs 1 μm NECA): 0.5667
logFC ST6GALNAC2 ([2]; Control (DMSO) vs 1 μm NECA): 0.8306
logFC TGIF1 ([2]; Control (DMSO) vs 1 μm NECA): 0.4769
logFC ZBTB18 ([2]; Control (DMSO) vs 1 μm NECA): 0.3385
logFC CCNE1 ([2]; Control (DMSO) vs 10 μm NECA): −0.4518
logFC CD93 ([2]; Control (DMSO) vs 10 μm NECA): 1.895
logFC CD300E ([2]; Control (DMSO) vs 10 μm NECA): 1.71
logFC CSF3 ([2]; Control (DMSO) vs 10 μm NECA): 3.508
logFC CXCL2 ([2]; Control (DMSO) vs 10 μm NECA): 3.011
logFC CXCL3 ([2]; Control (DMSO) vs 10 μm NECA): 3.106
logFC CXCL5 ([2]; Control (DMSO) vs 10 μm NECA): 3.354
logFC DENA5 ([2]; Control (DMSO) vs 10 μm NECA): 0.6559
logFC ECEL1 ([2]; Control (DMSO) vs 10 μm NECA): 0.6918
logFC EPB41L3 ([2]; Control (DMSO) vs 10 μm NECA): 2
logFC GALM ([2]; Control (DMSO) vs 10 μm NECA): −0.3189
logFC GBP6 ([2]; Control (DMSO) vs 10 μm NECA): −0.8039
logFC GPR157 ([2]; Control (DMSO) vs 10 μm NECA): 1.139
logFC HAS1 ([2]; Control (DMSO) vs 10 μm NECA): 3.807
logFC IL5 ([2]; Control (DMSO) vs 10 μm NECA): −0.6885
logFC IL23A ([2]; Control (DMSO) vs 10 μm NECA): 1.332
logFC INHBA ([2]; Control (DMSO) vs 10 μm NECA): 1.192
logFC LAP3 ([2]; Control (DMSO) vs 10 μm NECA): −0.4286
logFC LOC100505585 ([2]; Control (DMSO) vs 10 μm NECA): 0.6639
logFC NID1 ([2]; Control (DMSO) vs 10 μm NECA): 1.087
logFC PADI2 ([2]; Control (DMSO) vs 10 μm NECA): 0.9386
logFC PID1 ([2]; Control (DMSO) vs 10 μm NECA): 2.124
logFC PTGS2 ([2]; Control (DMSO) vs 10 μm NECA): 2.349
logFC RHCG ([2]; Control (DMSO) vs 10 μm NECA): 0.5767
logFC SLC7A7 ([2]; Control (DMSO) vs 10 μm NECA): 0.9134
logFC SPON1 ([2]; Control (DMSO) vs 10 μm NECA): 0.568
logFC ST6GALNAC2 ([2]; Control (DMSO) vs 10 μm NECA): 0.876
CXCL5 protein in the culture supernatants (ELISA) (PBMCs; PBMCs from two human donors, anti-CD3/CD28 activated, two days after activation, vs DMSO): activated; also recorded: dose-dependent increase in CXCL5
